Where “and” joins values, the source holds several entries; their conditions need not be identical. Identical values can stand only once.
Legend:
Sprague-Dawley rats = experiment: Air pouch inflammatory model with croton oil (Examples XII, XVIII); type: in vivo, rat; conditions: L-thiocitrulline 20 mg/kg intraperitoneally, repeated at 6-24 hour intervals; end of 5 days; versus rats without drug
[1] = system: human treated with interleukin-2; experiment: Hypotension during interleukin-2 treatment for renal cell cancer (Examples VIII, XIV); type: in vivo; conditions: interleukin-2 1×10^6, 5 days; L-thiocitrulline 10 mg/kg/day from start of infusion
Method: A human is treated for renal cell cancer with interleukin-2 (1×10^6 units) for 5 days. By the fifth day, the patient's blood pressure falls to 80/55 mm Hg and the patient encounters nausea and extreme discomfort. Three weeks later, the patient returns for a second course of interleukin-2 treatment but is pretreated (before commencing interleukin-2 infusion) with mithramycin (25 μg/kg) and is treated at 24 hour intervals thereafter with 25 μg/kg of mithramycin. The mithramycin is administered intravenously in 50 ml saline over a 3 to 6 hour interval.
A human is treated for renal cell cancer with interleukin-2 (1×10^6) for 5 days. Simultaneously with commencing interleukin-2 infusion, L-thiocitrulline (10 mg/kg/day) is administered.

[2] = target: T1, immunostimulant induced argininosuccinate synthetase (Rattus norvegicus, UniProt P09034); experiment: Argininosuccinate synthetase assay in crude homogenate of immunostimulant treated rat aortic smooth muscle cells (Example VI); type: biochemical; conditions: test compound 1 mM; for counts per minute in the argininosuccinate synthetase assay: duplicate runs, control 534.00 and 443.00, background 217, 237 and 252 not subtracted
T1 sequence (P09034 1-412): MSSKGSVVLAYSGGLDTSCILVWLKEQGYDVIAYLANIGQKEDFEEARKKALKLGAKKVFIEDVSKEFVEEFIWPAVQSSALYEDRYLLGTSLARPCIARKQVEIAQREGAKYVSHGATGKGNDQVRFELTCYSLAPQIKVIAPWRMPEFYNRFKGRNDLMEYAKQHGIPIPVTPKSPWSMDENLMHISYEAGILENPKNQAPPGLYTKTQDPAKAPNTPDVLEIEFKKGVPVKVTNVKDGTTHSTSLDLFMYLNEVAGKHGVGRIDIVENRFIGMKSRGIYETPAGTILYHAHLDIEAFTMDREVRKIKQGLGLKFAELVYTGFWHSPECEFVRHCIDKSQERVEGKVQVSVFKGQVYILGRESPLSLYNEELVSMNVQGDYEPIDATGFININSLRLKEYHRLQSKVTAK
Method: Argininosuccinate synthetase activity was assayed based on the conversion of [^14 C]aspartate to [^14 C]argininosuccinate, as described in O'Brien, W. E., Biochemistry 18, 5353-5356, 1979, with the exception that aspartate was present at a concentration of 30 μm (0.021 μCi/nmol). Reaction mixtures also contained L-citrulline (5 mM), Tris (10 mM, pH 7.5), ATP 0.1mM), phosphoenolpyruvate (1.5 mM), pyruvate kinase (4.5 units), myokinase (4 units), and pyrophosphatase (0.2 unit) in a total volume of 0.3 ml. Reactions were allowed to proceed for 90 minutes at 37° C before termination and quantification of the [^14 C]argininosuccinate formed, using ion exchange chromatography on Dowex 1-X8 (200-400 mesh, Bio-Rad).
Immunostimulant treated rat aortic smooth muscle cells prepared as in Example I were homogenized in 10 volumes (10 ml/gm rat aortic smooth muscle cells) of 100 mM tris buffer containing 1 mM phenylmethylsulfonyl fluoride ([…]) and 1 mM dithiothreitol (to maintain enzyme in reduced form).
For the control, the crude homogenate was assayed for argininosuccinate synthetase by the procedure as described in Example I except that L-citrulline was present at a concentration of 150 μM instead of 5 mM. In duplicate runs, counts per minute were 534.00 (8.65% error) and 443.00 (9.50% error) counts per minute.
The background count to be subtracted from the above count results was obtained by omitting citrulline from the argininosuccinate synthetase assay and in three runs was determined to be 217, 237 and 252 counts per minute.

[3] = system: patient with Gram negative septicemia; experiment: Blood pressure in septicemia patient given dopamine plus test agent (Examples IX, XV); type: in vivo, human; conditions: dopamine 10 μg/kg/min plus L-thiocitrulline 20 mg/kg bolus then 10 mg/kg/hr
Method: A patient with Gram negative septicemia and blood pressure of 80/55 mm Hg is administered dopamine at 10 μg/kg/min to acutely increase blood pressure and concurrently is administered mithramycin (25 μg/kg) intravenously in 50 ml saline over 3-6 hours.
A patient with Gram negative septicemia and blood pressure of 80/55 mm Hg is administered dopamine at 10 μg/kg/min to acutely increase blood pressure and concurrently is intravenously administered an initial bolus dose of L-thiocitrulline of 20 mg/kg and thereafter L-thiocitrulline as a sustained infusion at a dose of 10 mg/kg/hr.

[4] = system: patient with Gram negative septicemia; experiment: Blood pressure in septicemia patient given N^G -methyl-L-arginine plus test agent (Examples X, XVI); type: in vivo, human; conditions: N^G -methyl-L-arginine 20 mg/kg bolus then 10 mg/kg/hr, plus N^ω -methyl-L-citrulline 40 mg/kg intravenously over 3-6 hours
Method: A patient with Gram negative septicemia and blood pressure of 80/55 mm Hg is administered N^G -methyl-L-arginine in a bolus dose of 20 mg/kg intravenously in saline and thereafter is given a sustained infusion of N^G -methyl-L-arginine at a dosage of 10 mg/kg/hr. Mithramycin (25 μg/kg) is given intravenously in 50 ml saline over 3-6 hours starting at the time of the bolus dose of N^G -methyl-L-arginine. […] The patient is released after 2 days.
A patient with a Gram negative septicemia and blood pressure of 80/55 mm Hg is administered N^G -methyl-L-arginine in a bolus dose of 20 mg/kg intravenously in saline and thereafter is given a sustained infusion of N^G -methyl-L-arginine at a dose of 10 mg/kg/hr. N^ω -Methyl-L-citrulline (40 mg/kg) is given intravenously in 50 ml saline over 3-6 hours starting at the time of the bolus dose of N^G -methyl-L-arginine.

[5] = system: rat aortic smooth muscle cells; experiment: Nitrite production (indicator of cellular NO synthesis) by LPS/interferon-gamma induced rat aortic smooth muscle cells (Examples IV, V); type: cell-based; conditions: L-citrulline varied at fixed L-arginine (0 or low), added with immunostimulant; 24 hours; FIG. 5
Method: Rat aortic smooth muscle cells were grown as described in Example I and were continuously treated with 30 μg/ml of bacterial lipopolysaccharide in combination with 50 ng/ml of interferongamma. Concentrations of mithramycin as indicated in FIG. 4 were added either simultaneously with immunostimulant (filled in circles in FIG. 4) or 4 hours later (open circles in FIG. 4).
Nitrite was used as an indicator of cellular NO synthesis and assay was carried out as described in Gross, S. S., et al, J. Biol. Chem. 267, 25722-25729 (1992). In the assay, cells were treated with serum- and arginine-free RPMI 1640 medium containing the desired test agents for 24 hours. The accumulation of nitrite in the cell culture medium was quantified colorimetrically after adding 100 μl of Griess reagent (1% sulfanilamide and 0.1% naphthalene diamine in 5% o-phosphoric acid) to an equal volume of sample.
Rat aortic smooth muscle cells were grown as described in Example I and were treated with 30 μg/ml of bacterial lipopolysaccharide in combination with 50 ng/ml of interferon-gamma. Concentrations of L-citrulline and L-arginine as indicated in FIG. 5 were added simultaneously with immunostimulant. Nitrite was used as an indicator of cellular NO synthesis and assay therefor was carried out as described in Example IV.

Row | Structure (SMILES) | inhibition of immunostimulant induced argininosuccinate synthetase ([2]; L-citrulline 150 μM) | counts per minute in the argininosuccinate synthetase assay ([2]; L-citrulline 150 μM) | inhibition of immunostimulant induced argininosuccinate synthetase ([2]; stated in present tense) | other results
1 | NC(=S)NCCC[C@H](N)C(=O)O [L-thiocitrulline] | are inhibitors of immunostimulant induced argininosuccinate synthetase | 272.00 (12.13% error) counts per minute and 227.00 (13.27% error) counts per minute | – | inflammation (Sprague-Dawley rats): less inflammation; nitrite in the fluid exudate of the lesion (Sprague-Dawley rats): significantly less nitrite; development of hypotension [1]: Hypotension does not develop; blood pressure [3]: becomes normal within minutes and this state is sustained
2 | CNC(=O)NCCC[C@H](N)C(=O)O [N^ω -methyl-L-citrulline] | – | – | more potent than obtained with L-canavanine but less potent than obtained with L-thiocitrulline | blood pressure [4]: becomes mildly hypotensive or normal within minutes
3 | CNC(=N)NCCC[C@H](N)C(=O)O [N^ω -methyl-L-arginine] | – | 591.00 (8.23% error) counts per minute and 520.00 (8.77% error) counts per minute | – | –
4 | CCC[C@H](N)C(=O)O [L-norvaline] | – | – | inhibition of immunostimulant induced argininosuccinate synthetase is shown | –
5 | N=C(N)NOCC[C@H](N)C(=O)O [L-canavanine] | are inhibitors of immunostimulant induced argininosuccinate synthetase | 355.00 (10.61% error) counts per minute and 393.00 (10.09% error) counts per minute | – | –
6 | NC(=O)NCCC[C@H](N)C(=O)O [L-citrulline] | – | – | – | nitrite concentration in cell culture medium [5]: maximal nitrite is obtained
